Laboratory results: patent US7820212B2, “Abietane diterpenoid compound, and composition comprising extract of Torreya nucifera, or abietane diterpenoid compounds or terpenoid compounds isolated from them for prevention and treatment of cardiovascular disease” (Korea Research Institute of Bioscience and Biotechnology, priority 2004, dated 2010)

Columns and labels:
[1] = tested on: LDL; assay: Anti-oxidative activity to LDL by TBARS method (Cu2+ mediated LDL-oxidation); format: biochemical, human; conditions: 37° C. 4 hours, MDA by TBARS
Protocol: Cu^2+ is known to mediate LDL-oxidation. Thus, in the present invention, dialdehyde, which is an oxidation product of unsaturated fatty acid formed during Cu^2+ mediated LDL-oxidation, was measured by thiobarbituric acid reactive substances (TBARS) method in order to investigate the LDL anti-oxidative activity of T. nucifera extracts or abietane diterpenoid compound separated from the same (Ahn, B. T. et. al., Low-density Lipoprotein-Antioxidant Constituents of Saururus Chinensis, J. Nat. Prod. 64: 1562, 2001). Centrifugation was performed with 300 ml of human blood plasma by using a ultracentrifuge at 100,000×g for 24 hours to remove floating VLDL/chylomicron layer in the upper part. The specific gravity of the remaining solution was adjusted to 1.063 g/ml. Centrifugation was performed again at 100,000×g for 24 hours, and 25 ml of the floating LDL (1.5˜2.5 mg protein/ml) in the upper layer was separated. […] T. nucifera extracts or abietane diterpenoid compound isolated from the same was dissolved in DMSO (dimethylsulfoxide), and the solution was diluted at different concentrations before use. […] OD540 was measured with a UV/VIS spectrophotometer. Malondialdehyde (MDA) detected by the above coloring was quantified. […] MDA was quantified by using the standard curve in experiments with T. nucifera extracts or abietane diterpenoid compound isolated from the same.

[2] = tested on: C57BL/6J mice; assay: Cholesterol-lowering effect in mice on high-fat/high-cholesterol (HFHC) diet; format: in vivo; conditions: for HDL-cholesterol / HDL/total cholesterol / Total cholesterol: blood plasma, 1% extracts or 0.1% probucol (wt/wt diet)
Protocol: 30 specific pathogens free male C57BL/6J mice at the age of 6 weeks were raised in an animal facility, in which temperature was maintained as 22±3° C., humidity was kept as 55±10% and light was regulated as 12L/12D. The mice were adapted for about one week before being used for experiments. When they were at the age of 7 weeks (weight: 20˜22 g), they were divided into […] according to randomized block design. Group 1 mice were given with high-cholesterol/high-fat diet (CRF-1; AIN-76 test animal's normal diet supplemented with 1.25% cholesterol and 15% fat, Orient Yeast Co. Ltd., Japan), group 2 mice were given with high-fat/high-cholesterol (HFHC) diet together with 1% methanol extracts (wt/wt diet) of T. nucifera leaves (or 1% hot water extracts of T. nucifera leaves), and group 3 mice were treated with HFHC diet together with 0.1% probucol (wt/wt diet). All the mice of every group were free to take the diet and water for 10 days. Dietary intake was recorded everyday and weights of animals were measured every 5 days. Upon completion of breeding, all the records were analyzed. […] All the mice in three groups were sacrificed 10 days after the beginning of animal tests, then their blood was examined. Blood was taken from retro-orbital sinus of the sacrified mice by heparin treated capillary tube. Centrifugation was performed with blood at 8,000×g for 10 minutes. Blood plasma was separated from supernatant and then stored in a deep freezer. Total cholesterol content (TC) in blood plasma of each mouse of experimental group was measured by using a blood chemistry analyzer (CIBA Corning 550 Express, USA). In order to measure HDL-cholesterol, HDL measuring reagent (Chiron Diagnostics Co., USA), produced by the modified method for HDL measurement (references [(1) Stein E. A., et al.: Development and evaluation of a method for quantitation of plasma high-density-lipoprotein cholesterol. Clin. Chem. 24: 1112-1115, 1978; (2) Finley P. R., et al.: Cholesterol in high-density lipoprotein: use of Mg^2+/dextran sulfate in its enzymatic measurement. Clin. Chem., 24: 931-933, 1978; (3) Warnick G. R., et al.: Dextran sulfate-Mg^2+ precipitation procedure for quantitation of high-density lipoprotein cholesterol. Clin. Chem. 28: 1379-1388, 1982]) in which dextran sulfate and magnesium sulfate were added to serum of each mouse to precipitate LDL and VLDL and then HDL in supernatant was measured, was mixed with blood plasma of each experimental group at the ratio of 1:10. […] The resultant supernatant was put in a blood chemistry analyzer. A statistical computer program (Microsoft Excel, Version 7.0) was used to investigate and confirm (student t-test) the significance in difference in the results of blood analysis among experimental groups.

[3] = target: T1, hACAT-2 (Homo sapiens, UniProt O75908); assay: ACAT activity, microsomal fraction of Hi5 cells over-expressing hACAT-2; format: biochemical
T1 construct: made in house; host or cells: Hi5 insect cells infected with recombinant baculovirus (virus produced in sf9 cells); microsomal fraction used
T1 sequence (O75908 1-522): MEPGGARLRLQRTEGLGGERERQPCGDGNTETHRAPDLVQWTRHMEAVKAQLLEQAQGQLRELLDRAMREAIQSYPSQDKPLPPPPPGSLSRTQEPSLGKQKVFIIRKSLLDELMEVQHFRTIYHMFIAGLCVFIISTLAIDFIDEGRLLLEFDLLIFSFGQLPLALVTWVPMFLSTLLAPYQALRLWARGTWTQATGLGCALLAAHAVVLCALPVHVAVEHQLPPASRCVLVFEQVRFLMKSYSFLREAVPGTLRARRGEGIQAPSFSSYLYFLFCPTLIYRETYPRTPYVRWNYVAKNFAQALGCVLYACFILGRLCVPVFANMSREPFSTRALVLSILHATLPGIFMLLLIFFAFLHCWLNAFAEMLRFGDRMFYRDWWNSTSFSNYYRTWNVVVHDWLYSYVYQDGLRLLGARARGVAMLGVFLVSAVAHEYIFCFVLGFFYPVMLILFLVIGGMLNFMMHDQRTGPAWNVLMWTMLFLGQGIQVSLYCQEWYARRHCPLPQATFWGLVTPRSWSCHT
Protocol: (§1) In order to investigate the effect on hACAT-1 and hACAT-2 activities, hACAT-1 and hACAT-2 proteins were first obtained by taking advantage of baculovirus expression system.
(§2) cDNAs of hACAT-1 and hACAT-2 obtained from human liver cDNA library screening were inserted into baculovirus transfer vector, which was then introduced into insect sf9 cells to produce virus. Then, recombinant viruses of HACAT-1 and hACAT-2 were separated by plaque purification method, and amplification was performed three times to increase titer of viral stock. Hi5 insect cells having a good protein expression efficacy were infected with the recombinant virus, making multiplicity of infection as 1, followed by shaking culture at 27° C. for one day.
(§3) The cultured Hi5 cells over-expressing hACAT-1 and hACAT-2 were centrifuged at 500×g for 15 minutes to separate microsomal fraction. Then, cells were crushed in hypotonic buffer by quick freezing quick thawing, followed by ultracentrifugation at 100,000×g for one hour.
(§4) The obtained microsomal fractions were suspended in storage buffer solution, adjusting protein content to 8 mg/ml, which was stored in a deep freezer before using.
(§5) 6.67 μl of cholesterol dissolved in acetone at the concentration of 1 mg/ml was mixed with 6 μl of 10% triton WR 1339 (Sigma Co.) in acetone. And acetone was evaporated by nitrogen gas. Distilled water was added to the resultant mixture to adjust the content of cholesterol to […].
(§6) To 10 μl of cholesterol solution was added 10 μl of 1 M KH2PO4 (pH 7.4), 5 μl of 0.6 mM BSA (bovine serum albumin), 10 μl of the microsomal solution obtained above, 10 μl of sample (T. nucifera extracts or abietane diterpenoid compound isolated from the same) and 45 μl of distilled water (total 90 μl). The mixture was pre-incubated in a 37° C. water bath for 30 minutes.
(§7) 10 μl of [1-^14C]oleyl-CoA solution (0.05 μCi, final concentration 10 μM) was added to the pre-incubated mixture, which was reacted in a 37° C. water bath for 30 minutes. To the mixture was added 500 μl of isopropanol:heptane solution (4:1 (v/v)), 300 μl of heptane and 200 μl of 0.1 M KH2PO4 (pH 7.4), which was stirred vigorously with vortex and then allowed to phase separation under gravity at room temperature for 2 minutes.
(§8) The 200 μl of upper phase was put in a scintillation vial, to which 4 ml of scintillation solution (Lipoluma, Lumac Co.) was added. Radioactivity of the upper phase was measured by a scintillation counter (1450 Microbeta liquid scintillation counter, Wallacoy, Finland).
(§9) ACAT activity was calculated based on the radioactivity, the amount of synthesized cholesteryl oleate, measured above and expressed as a defined unit, pico mole per 1 mg of protein for 1 minute (pico mole/minute/mg protein).

[4] = target: T2, hACAT-1 (Homo sapiens, UniProt P35610); assay: ACAT activity, microsomal fraction of Hi5 cells over-expressing hACAT-1; format: biochemical
T2 construct: made in house; host or cells: Hi5 insect cells infected with recombinant baculovirus (virus produced in sf9 cells); microsomal fraction used
T2 sequence (P35610 1-550): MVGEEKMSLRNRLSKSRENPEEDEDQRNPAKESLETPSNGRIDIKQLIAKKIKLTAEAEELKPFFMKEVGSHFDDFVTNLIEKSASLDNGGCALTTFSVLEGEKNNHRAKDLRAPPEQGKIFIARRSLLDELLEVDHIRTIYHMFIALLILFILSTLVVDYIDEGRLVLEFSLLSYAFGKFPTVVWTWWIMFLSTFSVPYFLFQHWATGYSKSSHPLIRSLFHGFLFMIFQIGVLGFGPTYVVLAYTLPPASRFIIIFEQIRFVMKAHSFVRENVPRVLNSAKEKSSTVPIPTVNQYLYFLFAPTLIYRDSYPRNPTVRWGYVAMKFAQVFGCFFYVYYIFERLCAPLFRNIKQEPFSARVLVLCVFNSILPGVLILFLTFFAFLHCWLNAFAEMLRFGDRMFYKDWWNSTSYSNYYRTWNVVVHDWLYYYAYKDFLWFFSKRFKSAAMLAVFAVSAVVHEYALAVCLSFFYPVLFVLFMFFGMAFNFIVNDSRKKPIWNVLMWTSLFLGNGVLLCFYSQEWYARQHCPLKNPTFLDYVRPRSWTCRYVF
Protocol: as §1, §2, §3, §4, §5, §6, §7, §8, §9

Molecule | IC50 [3] [µM] | IC50 [4] [µM] | further results
CC(C)(Sc1cc(C(C)(C)C)c(O)c(C(C)(C)C)c1)Sc1cc(C(C)(C)C)c(O)c(C(C)(C)C)c1 [Probucol] |  |  | IC50 [1]: 1.55 µM; plasma HDL-cholesterol contents compared with negative control ([2]; HFHC diet 10 days): not much different; HDL-cholesterol ([2]; Table 3, HFHC diet 10 days): 41.7 ± 6.4 mg/dL; HDL/total cholesterol ([2]; Table 3, HFHC diet 10 days): 24.3%; Total cholesterol ([2]; Table 3, HFHC diet 10 days): 177.0 ± 33.7 mg/dL; total cholesterol in plasma reduced, comparing to a control ([2]; Table 3 experiment, vs HFHC diet group): 14.5%; HDL-cholesterol ([2]; Table 4, HFHC diet 10 days): 44.3 ± 6.5 mg/dL; HDL/total cholesterol ([2]; Table 4, HFHC diet 10 days): 24.5%; Total cholesterol ([2]; Table 4, HFHC diet 10 days): 180.9 ± 32.6 mg/dL; plasma cholesterol reduced, comparing to a control ([2]; Table 4 experiment, vs HFHC diet group): 11.5%
CC(C)c1ccc2c(c1)CC[C@H]1[C@](C)(CO)CCC[C@]21C [Dehydroabietinol, dehydroabietinol] | 60 | 41 | 
C=C[C@@]1(C)CC[C@H]2C(=CC[C@@H]3[C@]2(C)CCC[C@@]3(C)C(=O)O)C1 [Isopimaric acid, isopimaric acid] | 263 | 229 | 
CC(C)c1cc2c(cc1O)[C@@]1(C)CCCC(C)(C)[C@@H]1CC2 [R = methyl, ferruginol] | 88 | 46 | 
COC(=O)[C@]1(C)CCC[C@]2(C)c3cc(O)c(C(C)C)cc3CCC12 (stereo partly drawn) [R = methylester, 12-hydroxyabietic-8,11,13-trien-18-oic acid methylester] | 309 | 129 | 
δ-cadinol |  | 79 | 
CC(C)c1cc2c(cc1O)[C@@]1(C)CCC[C@@](C)(C=O)C1CC2 (stereo partly drawn) [R = aldehyde, 18-oxoferruginol] | 42 | 37 | 
C=C1CCC2[C@](C)(CO)CCC[C@]2(C)[C@H]1CC/C(C)=C\CO (stereo partly drawn) [Kayadiol, kayadiol] | 155 | 120 | 
COC(OC)[C@]1(C)CCC[C@]2(C)c3cc(O)c(C(C)C)cc3CCC12 (stereo partly drawn) [R = dimethoxymethyl, 12-hydroxyabietic-8,11,13-trien-18-dimethylacetal] | 199 | 98 | 
CC(C)c1cc2c(cc1O)[C@@]1(C)CCC[C@@](C)(CO)C1CC2 (stereo partly drawn) [R = hydroxymethyl, 18-hydroxyferruginol] | 65 | 74 | 
